Tests used:
[1] = tested on: A90 human ovarian cells; experiment: A90 tumor cell proliferation (Sulphorhodamine B); type: cell-based; conditions: 4 days with compound
Description: Human umbilical vein endothelial cells (HUVECs) (Clonetics, Palo Alto, Calif.) were seeded at 2000 cells per well in growth medium containing 2% serum (EGM, Clonetics) and allowed to attach overnight (37° C., 5% CO2, 100% humidity). C6 rat glioma cells (ATCC) were seeded at 600 cells per well and incubated in F10 medium (GIBCO, Gaithersburg, Md.) supplemented with 15% horse serum, 2.5% fetal bovine serum, and 1 mM glutamine. A90 human ovarian cells (Dr. Kent Crickard, SUNY/AB Medical School) were seeded at 600 cells per well in RPMI1640 (GIBCO) plus 10% fetal bovine serum. Plates were incubated overnight (37° C., 5% CO2, 100% humidity) to allow the cells to attach. Test compound dilutions were added to the appropriate wells, and the incubation was continued for 4 additional days. Monolayers were fixed in 10% trichloroacetic acid (30 minutes at 4° C.), washed with distilled water, and stained with Sulphorhodamine B (0.075% in 1% acetic acid) (Sigma). Plates were washed in 1% acetic acid, and the bound dye was solubilized in 100 μL unbuffered Tris base. Absorbance was measured at 540 nm using a reference filter wavelength of 630 nm. Inhibitor potency (IC50) versus cellular proliferation was determined, and endothelial cell selectivity was assessed by comparing the inhibition of HUVEC proliferation to A90 and C6 tumor cell proliferation (Table 3).

[2] = biological target: T1, c-Src (Homo sapiens, UniProt P12931); experiment: Kinase inhibition assay (DELFIA), c-Src; type: biochemical; conditions: 40 μM ATP, c-Src 3 units per reaction
T1 construct: purchased Upstate Biotechnology, Lake Placid, N.Y
Description: (§1) The inhibition activity of the compounds in Examples 8, 9, 10, 11, and 12 and Reference Compounds A and B were evaluated using the Dissociated Enhanced Lanthanide Fluoroimmuno Assay (DELFIA) (Frank Loganzo and Carolyn Hardy. A sensitive, time-resolved fluorometric assay for the detection of inhibitors of phosphotyrosine kinases. American Biotechnology Laboratory, December 1998). DELFIA plates (EG&G Wallac, Gaithersburg, Md.) were coated overnight with Poly Glu Tyr (4:1) (Sigma, St. Louis, Mo.) at room temperature, washed (DELFIA wash reagent, EG&G Wallac), and spotted with 1 μL inhibitor dilution or DMSO carrier control per well. In some cases, kinase was autophosphorylated prior to analysis by incubating 45 minutes at 4° C. in the presence of 4 mM ATP and 25 mM MgCl2. A typical 100 μL kinase assay reaction contained 20 mM Tris (pH 7.5), 20 mM MgCl2, 50 mM NaCl, 5 mM DTT, and protease inhibitors (Mini EDTA-free protease inhibitor cocktail tablets, Boehringer Mannheim, Indianapolis, Ind.), 40 μM ATP, and an appropriate concentration of inhibitor. The reaction was allowed to continue for 30 minutes at room temperature. Plates were washed, blocked 30 minutes at room temperature (0.5% bovine serum albumin in DELFIA Assay Buffer, EG&G Wallac), and washed. One hundred microliter europium-conjugated antiphosphotyrosine antibody in DELFIA assay buffer was added to each well. Plates were incubated for 1 hour and decanted. One hundred microliter DELFIA enhancement solution (EG&G Wallac) was added and time-resolved fluorescence of the reactions determined using a VICTOR2 1420 multilable counter (EG&G Wallac). Compounds were tested from 10 through 0.0001 μM. c-Src was (Upstate Biotechnology, Lake Placid, N.Y.) was used at 3 units per reaction. The kinase domains from FGFR-1, VEGFR-2, Lck, and PDGF were purified from baculoviral vectors expression systems and were used in the assays at 20 nM.

[3] = biological target: T2, FGFR-1 (Homo sapiens, UniProt P11362); experiment: Kinase inhibition assay (DELFIA), FGFr; type: biochemical; conditions: 40 μM ATP, kinase domain 20 nM
T2 construct: The kinase domains from FGFR-1, VEGFR-2, Lck, and PDGF were purified from baculoviral vectors expression systems; made in house
Description: as §1

T2 sequence (P11362 478-767 limits assumed, species assumed): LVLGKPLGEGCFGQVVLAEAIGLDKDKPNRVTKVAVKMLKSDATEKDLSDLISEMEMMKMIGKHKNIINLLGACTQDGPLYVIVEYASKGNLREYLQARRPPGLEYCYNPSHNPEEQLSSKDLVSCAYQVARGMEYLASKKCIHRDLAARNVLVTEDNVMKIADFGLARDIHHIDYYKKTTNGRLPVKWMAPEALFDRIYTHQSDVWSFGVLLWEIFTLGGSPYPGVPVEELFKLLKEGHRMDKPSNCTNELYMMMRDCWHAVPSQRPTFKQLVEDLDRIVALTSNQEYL

Substance: 6-(3,5-Dimethoxy-phenyl)-8-ethyl-2-(pyridin-4-ylamino)-8H-pyrido[2,3-d]pyrimidin-7-one [Example 8]
- IC50 [1]: 2.92 µM
- IC50 [2]: 36.5 µM
- IC50 [3]: 0.009 µM

Source: patent US7022711B2, “2-(4-Pyridyl)amino-6-dialkoxyphenyl-pyrido[2,3-d]pyrimidin-7-ones” (Warner-Lambert Company, priority 2000, dated 2006)
